Reference: patent US9358226B2, “Triarylmethane analogs and their use in treating cancers” (Emory University, priority 2007, dated 2016)

Tested on: P. falciparum Dd2 (Multidrug Resistant)
Assay: Malaria model, multidrug resistant P. falciparum
Assay type: cell-based
Details: Plasmodium falciparum, DD2; read-out: IC50 (nM) vs P. falciparum Dd2 (Multidrug Resistant)
Method: The compounds were tested in a malaria model using both chloroquine sensitive and multidrug resistant P. falciparum. The malaria model was the same as published in JAC Advance Access published online on Jul. 30, 2008, Journal of Antimicrobial Chemotherapy, doi:10.1093/jac/dkn315, the contents of which are hereby incorporated by reference, and the data is summarized in the table below.
Briefly, the assay involves exposing both chloroquine sensitive and multidrug resistant P. falciparum to the compounds. After one hour of exposure to the highest concentration of the compound, followed by removal of the compound, the growth of all stages of P. falciparum was observed. The reduction in the growth stages was then compared with untreated control parasites. […] The presence of strong inhibition (defined herein as 10% growth) of all parasite stages was evaluated when the parasites were exposed to various concentrations of various compounds.

IC50: 0.44 nM
SMILES: CN(C)c1ccc(C(=C2C=CC(=[N+](C)C)C=C2)c2ccc(N(C)C)cc2)cc1 [Gentian Violet (GV), hexamethyl pararosaniline chloride]
